Assay results reported in patent publication US20050282814A1, “Vasculostatic agents and methods of use thereof” (TargeGen, Inc., priority 2002, published 2005).
Where a name gives a salt, the structure may show the parent alone.

Assays:
[1] = tested on: angiogenesis; test: Matrigel plug angiogenesis model (bFGF or VEGF), FITC-lectin; type: in vivo, Athymic WeHi (nu/nu) mice; conditions: 10 mg/kg i.p. bid for four days; matrigel with bFGF or VEGF
Protocol: FIGS. 13 and 14 illustrate the effects of invention compounds for their capacity to inhibit angiogenesis in vivo. […] Tumor extracellular matrix infused with the 160 ng of the described growth factors were injected subcutaneously in a Balb/C mouse. The described invention compound was injected daily at the described concentration for 5 days. After 5 days the animals were sacrificed and angiogenesis quantified based on the binding of fluorescently labeled, endothelium specific FITC-lectin. In the graph, compound A is 6,7-bis(4-hydroxyphenyl)-pteridin-4-ylamine sulfate salt.
Referring to FIGS. 13 and 14, a murine model of angiogenesis was used to screen compounds for their capacity to inhibit angiogenesis. […] In the graph, compound A is 6,7-bis(4-hydroxyphenyl)-pteridin-4-ylamine sulfate salt. Athymic WeHi (nu/nu) mice were first injected with 400 lls of an ice-cold tumor-derived extracellular matrix substrate, matrigel (Becton-Dickinson) infused with 400 ng/ml of bFGF or VEGF (R&D Systems) which rapidly solidifies into a subdermal plug at body temperature. Mice were subsequently injected intaperitoneally with 10 mg/kg of the indicated compounds bid for four days. […] Twenty minutes after injection of the lectin, mice were euthanized, matrigel plugs were then extracted, solublized in PBS with mechanical grinding and the fluorescent content of individual plugs was quantified. […]

[2] = tested on: acute myocardial infarct; test: Rat acute myocardial infarct model (60 min LAD occlusion, reperfusion); type: in vivo, Sprague-Dawley rats; conditions: 1.5 mg/kg IV at 90 min post-reperfusion, 24 hr
Protocol: A rodent model of acute myocardial infarct, in which the proximal left anterior descending coronary artery (LAD) is occluded for 60 min followed by reperfusion, was used to determine whether test agents reduced infarct size at 24 hours.
Myocardial infarcts were created in Sprague-Dawley rats (200-300 g body weight) by a 60 min occlusion of the LAD followed by LAD reperfusion. At 90 min post-reperfusion, either vehicle alone or test agents were injected IV. At 24 hr post-treatment, the ischemic zone (area at-risk, AAR) was delineated by re-ligation of the LAD followed by IV injection of alkali blue dye, after which hearts were sectioned along the short axis and stained using triphenyltetrazolium chloride to delineate viable from infarcted myocardium. Photographic images were then analyzed using morphometric software to calculate infarct area as a percent of the at-risk area.
The following studies were performed as described above, except that the timing of 3-[2,4-diamino-6-(3-hydroxyphenyl)pteridin-7-yl] phenol dihydrochloride salt administration (at 0.1 mg/kg) was varied. In one group, 3-[2,4-diamino-6-(3-hydroxyphenyl)pteridin-7-yl] phenol dihydrochloride salt was administered at both 60 and 240 min post-occlusion.
In a porcine MI model (90 min of LAD occlusion followed by complete reperfusion), a single 0.3 mg/kg IV bolus delivered 30 min post-reperfusion reduced infarct size by […] vs. controls (40% vs. 56%, N=12-13, P=0.03).

[3] = tested on: cerebral stroke; test: Cerebral stroke model, permanent middle cerebral artery occlusion; type: in vivo, mice; conditions: 1 mg/kg BW IV 60 min after ligation, 24 hours
Protocol: A rodent model of cerebral stroke, in which the middle cerebral artery is permanently occluded, was used to determine whether test agents reduced infarct size at 24 hours.
Cerebral strokes were created in mice by permanent ligation of the middle cerebral artery using a cauterizing tool, followed 60 min later by IV injection of either vehicle alone (50% PEG400 in water) or test agents (at 1 mg/kg BW). Twenty four hours later, brains were sectioned and stained using triphenyltetrazolium chloride to delineate viable from infarcted tissue. Photographic images were then analyzed using morphometric software to calculate infarct area.

[4] = tested on: CT-26 Colon carcinoma cells; test: CT-26 colon carcinoma lung metastases model, alone or with doxorubicin or docetaxel; type: in vivo, Balb/C mice; conditions: CT-26 lung metastases; I.P. every 3 days for 3 cycles; day 20
Protocol: FIG. 3 illustrates the effect of compounds administered in conjunction with doxorubicin in an in vivo model of metastatic colon cancer (CT-26 adenocarcinoma). Syngeneic CT-26 Colon carcinoma cells were injected I.V. in order to establish lung metastases in Balb/C mice. Beginning 10 days after cells were injected, indicated test agents were given I.P. every 3 days for 3 cycles. Animals were sacrificed at day 20, lungs were collected, and weighed. Net tumor burden is the weight of tumor-bearing lungs minus the average weight of normal control lungs. N=5/group, p<0.02. In these graphs, compound A is 6,7-bis(4-hydroxyphenyl)-pteridin-4-ylamine sulfate salt, and compound B is 6,7-diphenyl-pteridine-2,4-diamine.
FIG. 4 illustrates the effects of compounds of the present invention for co-drug therapy with Taxotere as described herein. Syngeneic CT-26 Colon carcinoma cells were used in order to establish lung metastases in Balb/C mice as described for FIG. 3. 6,7-bis(4-hydroxyphenyl)-pteridin-4-ylamine, sulfate salt (compound A) and 6,7-diphenyl-pteridine-2,4-diamine (compound B) from FIG. 1 are shown in FIG. 4.
FIG. 6 illustrates the effect of compounds administered in conjunction with docetaxel in the in vivo model of metastatic colon cancer (CT-26 adenocarcinoma) described for FIG. 4. N=5/group, p<0.02. […]

Nc1ncnc2nc(-c3ccc(O)cc3)c(-c3ccc(O)cc3)nc12 [compound A, 6,7-bis(4-hydroxyphenyl)-pteridin-4-ylamine sulfate salt]
inhibition of angiogenesis in vivo [1]: successfully inhibited angiogenesis in vivo
Infarct (% AAR, mean ± SEM) [2]: 60.6 ± 1.8 % AAR
% Infarct reduction ([2]; vs vehicle): 20%
Infarct area in mm^3 (mean ± SEM) [3]: 18.3 ± 2.6 mm^3
% Infarct reduction ([3]; vs vehicle): 53%
reduction of tumor burden in combination with docetaxel [4]: greater than 80%
reduction of tumor burden in combination with doxorubicin [4]: greater than 60%
